Experimental data reported in patent publication US20250241892A1, “5-METHOXY-N,N-[…][…] THE TREATMENT OF PSYCHOMOTOR RETARDATION” (GH RESEARCH IRELAND LIMITED, priority 2022, published 2025).

Columns and labels:
[1] = Pharmacokinetics of 5-MeO-DMT and bufotenine after inhalation; format: in vivo, human
Procedure: Blood samples were obtained at 1; 2; 4; 7; 10; 15; 20; 30; 45 min and 1; 1.5; 2; 3; 4 hours after administration.
PK parameters were generated by algebraic analysis of the concentration versus time plots for each individual. The analysis was carried out using the software Phoenix WinNonlin 6.3.

[2] = test system: patients with treatment-resistant major depressive disorder (TRD); test: Phase 1/2 clinical trial of inhaled 5-MeO-DMT in TRD; conditions: for Patients who experienced at least one ADR: n=4; for Patients with MADRS remission: n=4, day seven after dosing
Procedure: Patients were assigned to different groups. In the context of the present invention, the group who received a single, 12 mg dose and the group who underwent an intra-day individualized dosing regimen (IDR) that allowed for multiple, escalating doses (6 mg, 12 mg and 18 mg) within a single day, driven by the intensity of the patient-reported psychedelic experience are of interest.
This trial was designed in two parts. Part A was an open-label, single-arm, single-dose Phase 1 trial with two dose levels (12 mg (n=4) and 18 mg (n=4)). […] The primary endpoint of Part B was to assess the effects on the severity of depression, as assessed by the proportion of patients in remission on day seven after dosing, defined as a MADRS total score of less than or equal to 10.

[3] = TRD, 12 mg n=4, 2 hours after dose, baseline 16
[4] = TRD, 12 mg n=4, 3 hours after dose, baseline 18
[5] = TRD, 12 mg n=4, 3 hours after dose, baseline 25
[6] = TRD, 12 mg n=4, day 1, baseline 12
[7] = TRD, 12 mg n=4, day 1, baseline 13
[8] = TRD, 12 mg n=4, day 1, baseline 16
[9] = TRD, 12 mg n=4, day 1, baseline 25
[10] = TRD, 12 mg n=4, day 7, baseline 12
[11] = TRD, 12 mg n=4, day 7, baseline 13
[12] = TRD, 12 mg n=4, day 7, baseline 16
[13] = TRD, 12 mg n=4, day 7, baseline 25
[14] = TRD, IDR n=8, 2 hours after last dose, baseline 27
[15] = TRD, IDR n=8, 2 hours after last dose, baseline 28
[16] = TRD, IDR n=8, day 1, baseline 25
[17] = TRD, IDR n=8, day 1, baseline 27
[18] = TRD, IDR n=8, day 7, baseline 25
[19] = TRD, IDR n=8, day 7, baseline 27
[20] = TRD, IDR n=8, day 7, baseline 30

COc1ccc2[nH]cc(CCN(C)C)c2c1 [5-MeO-DMT]
Detectability in plasma ([1]; 3 hours after inhalation, whole dose range 6, 12, 18 mg): no longer detectable
Pharmacokinetic measurements with uptitration dosing schemes ([1]; compared with single doses): Substantially similar results
Changes in safety laboratory analyses, vital signs, psychiatric safety assessments, measures of cognitive function ([2]; Part A and Part B): No clinically significant changes
SAEs reported ([2]; Part A, 12 mg and 18 mg groups): No SAEs
Patients who experienced at least one ADR ([2]; Part A, 12 mg single dose): 3 of 4
Patients with MADRS remission ([2]; Part A, 12 mg): 50%
Patients who experienced at least one ADR ([2]; Part A, 18 mg single dose): 3 of 4
Patients with MADRS remission ([2]; Part A, 18 mg): 25%
Outcome of ADRs ([2]; Part B, IDR, n=8): All ADRs resolved spontaneously
SAEs reported ([2]; Part B, IDR, n=8): No SAEs
MADRS Suicidal Thoughts, sum of patient scores ([2]; TRD, 12 mg n=4, 2 hours after dose, baseline 8): 3
MADRS Inner Tension, sum of patient scores ([2]; TRD, 12 mg n=4, 2 hours after dose, baseline 13): 2
MADRS Concentration Difficulties, sum of patient scores [2, 3]: 7
MADRS Inability to Feel, sum of patient scores [2, 3]: 9
MADRS Lassitude, percentage improvement [2, 3]: 38%
MADRS Lassitude, sum of patient scores [2, 3]: 10
MADRS Pessimistic Thoughts, percentage improvement [2, 3]: 50.00%
MADRS Pessimistic Thoughts, sum of patient scores [2, 3]: 8
BPRS Blunted Affect, sum of patient scores ([2]; TRD, 12 mg n=4, 3 hours after dose, baseline 11): 8
BPRS Emotional Withdrawal, sum of patient scores ([2]; TRD, 12 mg n=4, 3 hours after dose, baseline 13): 11
BPRS Tension, sum of patient scores ([2]; TRD, 12 mg n=4, 3 hours after dose, baseline 14): 9
BPRS Guilt Feelings, percentage improvement [2, 4]: 50.00%
BPRS Guilt Feelings, sum of patient scores [2, 4]: 9
BPRS Anxiety, percentage improvement [2, 5]: 56.00%
BPRS Anxiety, sum of patient scores [2, 5]: 11
MADRS Suicidal Thoughts, sum of patient scores ([2]; TRD, 12 mg n=4, day 1, baseline 8): 5
BPRS Blunted Affect, sum of patient scores ([2]; TRD, 12 mg n=4, day 1, baseline 11): 6
MADRS Reduced Sleep, percentage improvement [2, 6]: 17%
MADRS Reduced Sleep, sum of patient scores [2, 6]: 10
BPRS Emotional Withdrawal, sum of patient scores [2, 7]: 8
MADRS Inner Tension, sum of patient scores [2, 7]: 3
BPRS Tension, sum of patient scores ([2]; TRD, 12 mg n=4, day 1, baseline 14): 6
MADRS Concentration Difficulties, sum of patient scores [2, 8]: 2
MADRS Inability to Feel, sum of patient scores [2, 8]: 1
MADRS Lassitude, percentage improvement [2, 8]: 100%
MADRS Lassitude, sum of patient scores [2, 8]: 0
MADRS Pessimistic Thoughts, sum of patient scores [2, 8]: 7
BPRS Guilt Feelings, sum of patient scores ([2]; TRD, 12 mg n=4, day 1, baseline 18): 5
BPRS Anxiety, percentage improvement [2, 9]: 76.00%
BPRS Anxiety, sum of patient scores [2, 9]: 6
MADRS Suicidal Thoughts, sum of patient scores ([2]; TRD, 12 mg n=4, day 7, baseline 8): 7
BPRS Blunted Affect, sum of patient scores ([2]; TRD, 12 mg n=4, day 7, baseline 11): 5
MADRS Reduced Sleep, percentage improvement [2, 10]: 50%
MADRS Reduced Sleep, sum of patient scores [2, 10]: 6
BPRS Emotional Withdrawal, sum of patient scores [2, 11]: 6
MADRS Inner Tension, sum of patient scores [2, 11]: 5
BPRS Tension, sum of patient scores ([2]; TRD, 12 mg n=4, day 7, baseline 14): 6
MADRS Concentration Difficulties, sum of patient scores [2, 12]: 3
MADRS Inability to Feel, sum of patient scores [2, 12]: 1
MADRS Lassitude, percentage improvement [2, 12]: 81%
MADRS Lassitude, sum of patient scores [2, 12]: 3
MADRS Pessimistic Thoughts, percentage improvement [2, 12]: 50.00%
MADRS Pessimistic Thoughts, sum of patient scores [2, 12]: 8
BPRS Guilt Feelings, sum of patient scores ([2]; TRD, 12 mg n=4, day 7, baseline 18): 5
BPRS Anxiety, percentage improvement [2, 13]: 76.00%
BPRS Anxiety, sum of patient scores [2, 13]: 6
MADRS Suicidal Thoughts, sum of patient scores ([2]; TRD, IDR n=8, 2 hours after last dose, baseline 11): 3
MADRS Inner Tension, sum of patient scores ([2]; TRD, IDR n=8, 2 hours after last dose, baseline 26): 11
MADRS Lassitude, percentage improvement [2, 14]: 63%
MADRS Lassitude, sum of patient scores [2, 14]: 10
MADRS Pessimistic Thoughts, percentage improvement [2, 15]: 75.00%
MADRS Pessimistic Thoughts, sum of patient scores [2, 15]: 7
MADRS Concentration Difficulties, sum of patient scores ([2]; TRD, IDR n=8, 2 hours after last dose, baseline 30): 11
MADRS Inability to Feel, sum of patient scores ([2]; TRD, IDR n=8, 2 hours after last dose, baseline 36): 12
BPRS Emotional Withdrawal, sum of patient scores ([2]; TRD, IDR n=8, 3 hours after last dose, baseline 13): 8
BPRS Blunted Affect, sum of patient scores ([2]; TRD, IDR n=8, 3 hours after last dose, baseline 15): 11
BPRS Tension, sum of patient scores ([2]; TRD, IDR n=8, 3 hours after last dose, baseline 16): 11
BPRS Guilt Feelings, sum of patient scores ([2]; TRD, IDR n=8, 3 hours after last dose, baseline 34): 14
BPRS Anxiety, sum of patient scores ([2]; TRD, IDR n=8, 3 hours after last dose, baseline 37): 19
MADRS Suicidal Thoughts, sum of patient scores ([2]; TRD, IDR n=8, day 1, baseline 11): 1
BPRS Emotional Withdrawal, sum of patient scores ([2]; TRD, IDR n=8, day 1, baseline 13): 8
BPRS Blunted Affect, sum of patient scores ([2]; TRD, IDR n=8, day 1, baseline 15): 8
BPRS Tension, sum of patient scores ([2]; TRD, IDR n=8, day 1, baseline 16): 11
MADRS Reduced Sleep, percentage improvement [2, 16]: 52%
MADRS Reduced Sleep, sum of patient scores [2, 16]: 12
MADRS Inner Tension, sum of patient scores ([2]; TRD, IDR n=8, day 1, baseline 26): 6
MADRS Lassitude, percentage improvement [2, 17]: 81%
MADRS Lassitude, sum of patient scores [2, 17]: 5
MADRS Pessimistic Thoughts, sum of patient scores ([2]; TRD, IDR n=8, day 1, baseline 28): 4
MADRS Concentration Difficulties, sum of patient scores ([2]; TRD, IDR n=8, day 1, baseline 30): 1
BPRS Guilt Feelings, sum of patient scores ([2]; TRD, IDR n=8, day 1, baseline 34): 11
MADRS Inability to Feel, sum of patient scores ([2]; TRD, IDR n=8, day 1, baseline 36): 2
BPRS Anxiety, sum of patient scores ([2]; TRD, IDR n=8, day 1, baseline 37): 16
MADRS Suicidal Thoughts, sum of patient scores ([2]; TRD, IDR n=8, day 7, baseline 11): 3
BPRS Emotional Withdrawal, sum of patient scores ([2]; TRD, IDR n=8, day 7, baseline 13): 8
BPRS Blunted Affect, sum of patient scores ([2]; TRD, IDR n=8, day 7, baseline 15): 8
BPRS Tension, sum of patient scores ([2]; TRD, IDR n=8, day 7, baseline 16): 10
MADRS Reduced Sleep, percentage improvement [2, 18]: 64%
MADRS Reduced Sleep, sum of patient scores [2, 18]: 9
MADRS Inner Tension, sum of patient scores ([2]; TRD, IDR n=8, day 7, baseline 26): 12
MADRS Lassitude, percentage improvement [2, 19]: 89%
MADRS Lassitude, sum of patient scores [2, 19]: 3
MADRS Pessimistic Thoughts, sum of patient scores ([2]; TRD, IDR n=8, day 7, baseline 28): 3
MADRS Concentration Difficulties, percentage improvement [2, 20]: 70.00%
MADRS Concentration Difficulties, sum of patient scores [2, 20]: 9
BPRS Guilt Feelings, sum of patient scores ([2]; TRD, IDR n=8, day 7, baseline 34): 10
MADRS Inability to Feel, sum of patient scores ([2]; TRD, IDR n=8, day 7, baseline 36): 6
BPRS Anxiety, sum of patient scores ([2]; TRD, IDR n=8, day 7, baseline 37): 17
